In ChEMBL document CHEMBL1143712, “Structure-activity relationships of novel N-acyloxy-1,4-dihydropyridines as P-glycoprotein inhibitors” (Bioorg Med Chem, 2007):

Assays:
[1] = biological target: T1, ATP-dependent translocase ABCB1 (Mus musculus, UniProt P06795); assay: Inhibition of P-glycoprotein in MDR mouse T lymphoma cells using rhodamine 123 assessed as ratio of fluorescent uptake relative to untreated control at 1 uM in MDR reversal assay by flow cytometry; type: cell-based
[2] = biological target: T1, ATP-dependent translocase ABCB1; assay: Inhibition of P-glycoprotein in MDR mouse T lymphoma cells using rhodamine 123 assessed as ratio of fluorescent uptake relative to untreated control at 10 uM in MDR reversal assay by flow cytometry; type: cell-based

T1 sequence (P06795 whole entry): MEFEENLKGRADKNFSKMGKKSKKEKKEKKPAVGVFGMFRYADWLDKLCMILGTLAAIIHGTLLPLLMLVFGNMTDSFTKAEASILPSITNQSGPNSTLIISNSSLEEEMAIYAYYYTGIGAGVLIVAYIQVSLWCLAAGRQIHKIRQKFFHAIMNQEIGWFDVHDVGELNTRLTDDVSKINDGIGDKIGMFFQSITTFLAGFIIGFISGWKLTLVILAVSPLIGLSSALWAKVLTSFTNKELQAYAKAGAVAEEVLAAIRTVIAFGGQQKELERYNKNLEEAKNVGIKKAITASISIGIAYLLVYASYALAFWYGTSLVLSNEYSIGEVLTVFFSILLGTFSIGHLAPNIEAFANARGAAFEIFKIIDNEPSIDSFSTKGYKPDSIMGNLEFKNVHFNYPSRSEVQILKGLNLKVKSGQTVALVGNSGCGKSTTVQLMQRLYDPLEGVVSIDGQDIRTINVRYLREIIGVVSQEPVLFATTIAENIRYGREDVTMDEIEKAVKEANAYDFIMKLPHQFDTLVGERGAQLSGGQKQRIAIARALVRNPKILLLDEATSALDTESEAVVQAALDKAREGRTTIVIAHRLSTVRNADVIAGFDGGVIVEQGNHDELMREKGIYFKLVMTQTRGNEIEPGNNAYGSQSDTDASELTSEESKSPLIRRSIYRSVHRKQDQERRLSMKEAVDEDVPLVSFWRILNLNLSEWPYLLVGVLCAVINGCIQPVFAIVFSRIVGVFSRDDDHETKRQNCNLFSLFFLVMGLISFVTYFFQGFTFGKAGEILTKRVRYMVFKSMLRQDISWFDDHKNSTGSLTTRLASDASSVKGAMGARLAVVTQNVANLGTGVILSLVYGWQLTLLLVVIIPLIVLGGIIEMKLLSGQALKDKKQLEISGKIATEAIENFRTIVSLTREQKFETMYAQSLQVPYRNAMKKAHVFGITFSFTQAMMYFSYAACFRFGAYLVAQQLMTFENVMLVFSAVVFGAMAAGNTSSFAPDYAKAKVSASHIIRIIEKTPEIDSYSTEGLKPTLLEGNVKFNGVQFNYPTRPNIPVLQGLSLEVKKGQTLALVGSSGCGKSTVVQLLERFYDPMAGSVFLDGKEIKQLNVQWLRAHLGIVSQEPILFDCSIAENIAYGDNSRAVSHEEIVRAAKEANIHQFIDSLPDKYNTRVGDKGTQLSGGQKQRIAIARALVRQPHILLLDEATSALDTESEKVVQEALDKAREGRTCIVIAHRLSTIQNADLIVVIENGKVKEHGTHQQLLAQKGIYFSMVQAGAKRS

SMILES	Activity [1]	Activity [2]
CCOC(=O)C1=CN(C(=O)Oc2ccccc2)C=CC1c1ccc(C)cc1 (configuration not stated)	1.04	3.09
CCOC(=O)C1=CN(C(=O)Oc2ccccc2)C=CC1c1ccc(OC)cc1 (configuration not stated)	1.3	19.87
CC(=O)C1=CN(C(=O)Oc2ccccc2)C=CC1c1ccc(C)cc1 (configuration not stated)	1.41	3.58
COc1ccc(C2C=CN(C(=O)Oc3ccccc3)C=C2C(C)=O)cc1 (configuration not stated)	1.81	7.1

The remaining lines, values ahead:

Activity [1]	Activity [2]	SMILES
1.6	39.98	CCOC(=O)C1=CN(C(=O)Oc2ccccc2)C=CC1c1ccccc1OC (configuration not stated)
1.01	5.15	COc1ccccc1C1C=CN(C(=O)Oc2ccccc2)C=C1C(C)=O (configuration not stated)
